From patent US20140107054A1, “Method of treating clostridium difficile-associated diarrhea” (priority 2006, published 2014)
Converted amounts (≈) assume the structure as drawn. “And” between values parts separate entries of the source, which are not always exact repeats. Equal values may be shown once.

Columns and labels:
C. difficile (17857) = assay: MIC, CLSI agar dilution, different lots of media; format: cell-based, Clostridium difficile; details: Clostridioides difficile
Excerpt: (§1) Laboratory strains of Clostridium difficile 9689, 700057, 43255, 17857 and Eubacterium lentum 43055 were obtained from American Type Culture Collection (ATCC). […] Broth dilution is not a validated method for MIC testing of Clostridium; however, due to potential inaccuracy of measuring the pH of solid agar after equilibration inside the anaerobic chamber, both methods were used and compared for the assessment of pH effects.

C. difficile (43255) = assay: MIC, CLSI agar dilution, different lots of media; format: cell-based, Clostridium difficile; details: for MIC: Clostridioides difficile
Excerpt: as §1

[1] = test system: Eubacterium lentum (43055); assay: MIC, CLSI agar dilution, different lots of media (QC organism); format: cell-based; details: Eggerthella lenta
Excerpt: as §1

C. difficile ATCC 9689 [2] = assay: MIC, CLSI agar dilution; format: cell-based, Clostridium difficile; details: for MIC: Clostridioides difficile, different lots of media
Excerpt: (§2) Laboratory strains of Clostridium difficile 9689, 700057, 43255, 17857 and Eubacterium lentum 43055 were obtained from American Type Culture Collection (ATCC). […] Broth dilution is not a validated method for MIC testing of Clostridium; however, due to potential inaccuracy of measuring the pH of solid agar after equilibration inside the anaerobic chamber, both methods were used and compared for the assessment of pH effects. […] Even with strong buffering, the pH shifted slightly following equilibration in the anaerobic gas, and thus in some cases media was titered in ambient air to above the desired anaerobic pH. The actual pH was always confirmed following equilibration inside the anaerobic chamber. […] The level of divalent cations in the Brucella broth as acquired from the manufacturer were determined by the Laboratory Specialists, Inc.

C. difficile strains [3] = assay: MIC, agar dilution, statements for C. difficile strains together; format: cell-based, Clostridium difficile
Excerpt: as §2

[4] = Fold increase in MIC relative to tiacumicin B (API mixture profile table); format: cell-based
C. difficile ATCC 9689 [5] = assay: MIC, broth microdilution (pH effect); format: cell-based, Clostridium difficile; details: in µg/mL
C. difficile strains [6] = assay: MIC, broth microdilution, statements for both C. difficile strains; format: cell-based, Clostridium difficile; details: all three experiments
C. difficile ATCC 700057 [7] = assay: MIC, broth microdilution (pH effect); format: cell-based, Clostridium difficile; details: in µg/mL
C. difficile ATCC 700057 [8] = assay: MIC, CLSI agar dilution; format: cell-based, Clostridium difficile
Excerpt: as §2

Bacteroides group = assay: Quantitative stool cultures of Phase 2A patients, Bacteroides group counts; format: in vivo, human
C. difficile = assay: Quantitative stool cultures of Phase 2A patients, C. difficile counts; format: in vivo, human; details: all patients except one receiving 50 mg; 50, 100 or 200 mg twice daily for 10 days (vancomycin 125 mg qid)
[9] = anaerobic pH 6.7, 10 mM NaH2PO4 pH 7.0 (air)
[10] = anaerobic pH 6.8, 100 mM NaH2PO4 pH 7.0 (Air)
[11] = anaerobic pH 7.2, 10 mM MOPS pH 8.0 (Air)
[12] = anaerobic pH 7.5, 100 mM MOPS pH 8.0 (Air)
[13] = anaerobic pH 7.6, 10 mM TAPS pH 9.0 (Air)
[14] = anaerobic pH 8, 100 mM TAPS pH 9.0 (Air)
[15] = anaerobic pH 8.1, 100 mM TAPS pH 9.5 (Air)
[16] = strongly buffered series, anaerobic pH 6, pH 6.0 (Air)
[17] = unbuffered media, anaerobic pH 5.9
[18] = unbuffered media, anaerobic pH 6.6
[19] = unbuffered media, anaerobic pH 7.1
[20] = unbuffered media, anaerobic pH 7.5
[21] = weakly buffered series, anaerobic pH 6, pH 6.0 (Air)
[22] = anaerobic pH 7, 100 mM NaH2PO4, pH 7.2 (Air)

CCC[C@@H]1C[C@@H](C(=O)N[C@@H]([C@H]2O[C@H](SC)[C@H](O)[C@@H](O)[C@H]2O)[C@H](C)Cl)N(C)C1 [Clindamycin, clindamycin]
MIC (C. difficile (17857); 24 h, Day 1): 4 µg/mL (≈ 9.41 µM)
MIC (C. difficile (17857); 48 h, Day 2): 2 µg/mL (≈ 4.71 µM)
MIC (C. difficile (17857); 72 h, Day 3): 4 µg/mL (≈ 9.41 µM)
MIC (C. difficile (43255); 24 h, Day 1): 8 µg/mL (≈ 18.8 µM)
MIC (C. difficile (43255); 48 h, Day 2): 4 µg/mL (≈ 9.41 µM)
MIC (C. difficile (43255); 72 h, Day 3): 8 µg/mL (≈ 18.8 µM)
MIC values (C. difficile (43255); Day 2): 8 µg/mL (≈ 18.8 µM)
MIC ([1]; 24 h, Day 1): 0.25 µg/mL (≈ 0.588 µM)
MIC ([1]; 48 h, Day 2): 0.25 µg/mL (≈ 0.588 µM)
MIC ([1]; 72 h, Day 3): 0.125 µg/mL (≈ 0.294 µM)
MIC (C. difficile ATCC 9689 [2]; ATCC9689, 24 h, Day 1): 4 µg/mL (≈ 9.41 µM)
MIC (C. difficile ATCC 9689 [2]; ATCC9689, 48 h, Day 2): 4 µg/mL (≈ 9.41 µM)
MIC (C. difficile ATCC 9689 [2]; ATCC9689, 72 h, Day 3): 4 µg/mL (≈ 9.41 µM)

Cc1ncc([N+](=O)[O-])n1CCO [Metronidazole, metronidazole]
MIC ([1]; 24 h, Day 1): 1 µg/mL (≈ 5.84 µM)
MIC ([1]; 48 h, Day 2): 0.25 µg/mL (≈ 1.46 µM)
MIC ([1]; 72 h, Day 3): 1 µg/mL (≈ 5.84 µM)
MIC values range in our laboratory (C. difficile strains [3]; control vs. C. difficile strains): 0.25 to 0.5 µg/mL

CCc1c(Cl)c(O)c(Cl)c(O)c1C(=O)OC1C(C)OC(OC/C2=C\C=C\CC(O)/C(C)=C/C(CC)C(OC3OC(C)(C)C(OC(=O)C(C)C)C(O)C3O)/C(C)=C/C(C)=C/CC(C(C)=O)OC2=O)C(OC)C1O (centres unmarked) [OP-1402]
fold increased in MIC relative to tiacumicn B [4]: 2-4x

CCC1/C=C(\C)C(O)C/C=C/C=C(\COC2OC(C)C(OC(=O)c3c(C)c(Cl)c(O)c(Cl)c3O)C(O)C2OC)C(=O)CC(C(C)O)C/C=C(C)/C=C(\C)C1OC1OC(C)(C)C(OC(=O)C(C)C)C(O)C1O (centres unmarked) [OP-1405, lipiarmycin A4]
fold increased in MIC relative to tiacumicn B [4]: 1-4x

CCc1c(Cl)c(O)c(Cl)c(O)c1C(=O)OC1C(C)OC(OC/C2=C\C=C\CC(O)/C(C)=C/C(CC)C(OC3OC(C)(C)C(OC(C)=O)C(O)C3O)/C(C)=C/C(C)=C/CC(C(C)O)OC2=O)C(OC)C1O (centres unmarked) [OP-1416]
fold increased in MIC relative to tiacumicn B [4]: 2-4x

CCC(=O)OC1C(O)C(O)C(OC2/C(C)=C/C(C)=C/CC(C(C)O)OC(=O)/C(COC3OC(C)C(OC(=O)c4c(O)c(Cl)c(O)c(Cl)c4CC)C(O)C3OC)=C/C=C/CC(O)/C(C)=C/C2CC)OC1(C)C (centres unmarked) [OP-1417]
fold increased in MIC relative to tiacumicn B [4]: 2-4x

CCc1c(Cl)c(O)c(Cl)c(O)c1C(=O)OC1C(C)OC(OC/C2=C/C=C/CC(O)/C(C)=C/C(CC)C(OC3OC(C)(C)C(O)C(OC(=O)C(C)C)C3O)/C(C)=C/C(C)=C/CC(C(C)O)OC2=O)C(OC)C1O (centres unmarked) [OP-1431, tiacumicin F]
fold increased in MIC relative to tiacumicn B [4]: 8x

CCc1c(Cl)c(O)c(Cl)c(O)c1C(=O)OC1C(C)OC(OC/C2=C/C=C/CC(O)/C(C)=C/C(CC)C(OC3OC(C)(C)C(O)C(O)C3OC(=O)C(C)C)/C(C)=C/C(C)=C/CC(C(C)O)OC2=O)C(OC)C1O (centres unmarked) [OP-1432, tiacumicin C]
fold increased in MIC relative to tiacumicn B [4]: 8-16x

CCC1CC=C(C)C=C(C)C(OC2OC(C)(C)C(OC(C)=O)C(O)C2O)C(CC)C=C(C)C(O)CC=CC=C(C)C(=O)O1 (centres unmarked) [OP-1434, tiacumicin A]
fold increased in MIC relative to tiacumicn B [4]: >32x

CCc1c(Cl)c(O)c(Cl)c(O)c1C(=O)OC1C(C)OC(OC/C2=C\C=C\CC(O)/C(C)=C/C(CC)C(OC3OC(C)(C)C(OC(=O)CC(C)C)C(O)C3O)/C(C)=C/C(C)=C/CC(C(C)O)OC2=O)C(OC)C1O (centres unmarked) [OP-1437]
fold increased in MIC relative to tiacumicn B [4]: 2x

CCc1c(Cl)c(O)c(Cl)c(O)c1C(=O)O[C@H]1[C@H](O)[C@H](OC)[C@H](OC/C2=C\C=C\C[C@H](O)/C(C)=C/[C@H](CC)[C@@H](O[C@@H]3OC(C)(C)[C@@H](OC(=O)C(C)C)[C@H](O)[C@@H]3O)/C(C)=C/C(C)=C/C[C@@H](C(C)O)OC2=O)O[C@@H]1C (some centres unmarked) [OP-1441, tiacumicin B]
fold increased in MIC relative to tiacumicn B [4]: 1x

CN[C@H](CC(C)C)C(=O)N[C@H]1C(=O)N[C@@H](CC(N)=O)C(=O)N[C@H]2C(=O)N[C@H]3C(=O)N[C@H](C(=O)N[C@H](C(=O)O)c4cc(O)cc(O)c4-c4cc3ccc4O)[C@H](O)c3ccc(c(Cl)c3)Oc3cc2cc(c3O[C@@H]2O[C@H](CO)[C@@H](O)[C@H](O)[C@H]2O[C@H]2C[C@](C)(N)[C@H](O)[C@H](C)O2)Oc2ccc(cc2Cl)[C@H]1O [Vancomycin, vancomycin]
MIC (C. difficile ATCC 9689 [5]; [9]): 1
MIC (C. difficile ATCC 9689 [5]; [10]): 1 and 2
MIC (C. difficile ATCC 9689 [5]; [11]): 2
MIC (C. difficile ATCC 9689 [5]; [12]): 4
MIC (C. difficile ATCC 9689 [5]; [13]): 4
MIC (C. difficile ATCC 9689 [5]; [14]): >8
MIC (C. difficile ATCC 9689 [5]; [15]): >8
MIC (C. difficile ATCC 9689 [5]; [16]): 1 and 0.5
MIC (C. difficile ATCC 9689 [5]; [17]): 0.5 and 1
MIC (C. difficile ATCC 9689 [5]; [18]): 0.5 and 1
MIC (C. difficile ATCC 9689 [5]; [19]): 2
MIC (C. difficile ATCC 9689 [5]; [20]): 4
MIC (C. difficile ATCC 9689 [5]; [21]): 0.5
MIC at highest pH treatment relative to lowest pH treatment (C. difficile strains [6]): 4-8 fold
MIC (C. difficile ATCC 700057 [7]; [9]): 1
MIC (C. difficile ATCC 700057 [7]; [10]): 2
MIC (C. difficile ATCC 700057 [7]; [11]): 2
MIC (C. difficile ATCC 700057 [7]; [12]): 4
MIC (C. difficile ATCC 700057 [7]; [13]): 4
MIC (C. difficile ATCC 700057 [7]; [14]): 8
MIC (C. difficile ATCC 700057 [7]; [15]): 8
MIC (C. difficile ATCC 700057 [7]; [16]): 1
MIC (C. difficile ATCC 700057 [7]; [17]): 0.5
MIC (C. difficile ATCC 700057 [7]; [18]): 1
MIC (C. difficile ATCC 700057 [7]; [19]): 1 and 2
MIC (C. difficile ATCC 700057 [7]; [20]): 2 and 4
MIC (C. difficile ATCC 700057 [7]; [21]): 0.5
Effect of inoculum density on MIC (C. difficile strains [3]; 10^5-10^8 cfu/ml (10^2-10^5 CFU/spot), ATCC 9689 and ATCC 700057, highest over lowest inoculum density): fourfold increase in MIC
In vitro activity (MIC) (C. difficile ATCC 700057 [8]; agar dilution, inoculum density 1.48 × 10^8 cfu/ml, 1.48 × 10^5): 2 µg/mL
agar dilution MIC (C. difficile ATCC 700057 [8]; [22]): 4
agar dilution MIC (C. difficile ATCC 700057 [8]; pH 6.7, unbuffered column): 2 (pH 6.7)
agar dilution MIC (C. difficile ATCC 9689 [2]; [22]): 4
agar dilution MIC (C. difficile ATCC 9689 [2]; pH 6.7, unbuffered column): 1 (pH 6.7)
Effect on Bacteroides counts during therapy (Bacteroides group; 125 mg qid for 10 days): severely impairs Bacteroides counts
Bacteroides group counts/gm feces wet weight, mean ± SD (Bacteroides group; Day 0, 125 mg qid (n = 7)): 7.39 ± 2.67 log10 CFU
C. difficile quantitative counts at day 10 (C. difficile): similarly effective
